US11548900B2, “Oxazino-quinazoline and oxazino-quinoline type compound, preparation method and uses thereof” (BEIJING SCITECH-MQ PHARMACEUTICALS LIMITED, priority 2018, dated 2023)

How the values were obtained:
[1] = target: HER2 kinase (Homo sapiens (Human), UniProt P04626); test: Inhibition of HER2 kinase activity (ULight-labeled PolyGT substrate); assay type: biochemical; conditions: HER2 kinase 10 nM, ATP 10 μM, 2 hours
Protocol: (§1) The assay for the inhibition of EGFR and HER2 kinase activity by small molecular compounds was carried out using the method as follows:
(§2) 1) Dilution of the compounds
(§3) In a 96-well plate a, the compounds were diluted with DMSO using a 3-fold gradient dilution to form 11 concentrations, the 12th concentration is pure DMSO (as a positive control); and in a new 96-well plate b the above solutions were diluted 25 times with ultrapure water (DMSO concentration is 4%).
(§4) 2) Transferring the compounds to 384-well plate
(§5) The compound solutions diluted with ultrapure water in the 96-well plate b above was transferred to the corresponding wells of a 384-well plate in duplicate.
(§6) 3) Addition of 4×kinase solution: 2.5 μl of the above 4× kinase solution was taken using multichannel pipette and added to the corresponding reaction wells of the 384-well plate, mixed well and pre-reacted at room temperature for 5 minutes.
(§7) 4) Addition of 2×substrate/ATP mixed solution: 5 μl of the above 2×substrate/ATP mixed solution was taken using multichannel pipette and added to the corresponding reaction wells of the 384-well plate.
(§8) 5) Negative control: negative control wells were set in the 384-well plate, and 2.5 μl 4×substrate, 2.5 μl 4×enzyme solution, 2.5 μl 1×Kinase Assay Buffer and 2.5 μl ultrapure water containing 4% DMSO were added to each well.
(§9) 6) Mixed by centrifugation and kept at room temperature for 2 hours in the dark.
(§10) 7) Termination of the enzymatic reaction:
(§11) 5 μl of the above 4× stop solution was pipetted to the corresponding wells of the 384-well plate, centrifuged and mixed, and reacted at room temperature for 5 minutes.
(§12) 5 μl of the above 4× detection solution was pipetted into the corresponding wells of the 384-well plate, centrifuged and mixed, and reacted at room temperature for 1 hour.
(§13) 9) The 384-well plate was placed into a microplate reader and the signal was detected using the corresponding program.
(§14) 10) IC50 analysis: Well reading value=10000*EU665 value/EU615 value Inhibition rate=(reading value of positive control well−reading value of experimental well)/(reading value of positive control well−reading value of negative control well)*100% Corresponding IC50s can be calculated by entering the drug concentrations and the corresponding inhibition rates into GraphPad Prism 5.
Conditions of experiment for screening HER2 kinase inhibitory molecules:
The final concentration of HER2 kinase in the reaction system is 10 nM, the final concentration of ATP is 10 μM, the final concentration of substrate ULight™-labeled PolyGT is 100 nM, and the enzymatic reaction time is 2 hours.
(§15) The maximum final concentration of the compound in the reaction system is 2.5 μM, 11 concentrations were made with a 3-fold gradient dilution, and the minimal final concentration is 0.042 nM. The final concentration of DMSO is 1%.

[2] = target: EGFR kinase (Homo sapiens (Human), UniProt P00533); test: Inhibition of EGFR kinase activity (ULight-labeled JAK-1 (Tyr1023) peptide substrate); assay type: biochemical; conditions: EGFR kinase 0.35 nM, ATP 150 μM, 2 hours
Protocol: as §1, §2, §3, §4, §5, §6, §7, §8, §9, §10, §11, §12, §13, §14
Conditions of experiment for screening EGFR kinase inhibitory molecules:
The final concentration of EGFR kinase in the reaction system is 0.35 nM, and the final concentration of ATP is 150 μM, the final concentration of substrate ULight™-labeled JAK-1 (Tyr1023) Peptide is 100 nM, and the enzymatic reaction time is 2 hours.
as §15

[3] = system: BT474 cells; test: Inhibition of cell proliferation, BT474 (CCK-8, 72 h); assay type: cell-based; conditions: Homo sapiens, BT-474, 72 h incubation
Protocol: The assay for the inhibition of cell proliferation by small molecular compounds was carried out using the method as follows:
1. 600 μL pancreatin was added to a T75 cell culture flask, which was digested in a 37° C. incubator for about 1 min before 5 mL of DMEM complete culture solution was added, blew evenly, transferred to a 15 mL centrifuge tube, and centrifuged at 1000 rpm for 4 min;
2. The supernatant was removed and 5 mL DMEM complete culture solution was added, blew evenly, and 10 μL cell suspension was taken and mixed with 10 μL 0.4% Trypan Blue, and counted using a cell counter;
3. BT474 and HCC827 cell lines were seeded in 96-well plates at a cell density of 10,000 and 3000 cells/well/80 μL, respectively, and cultured overnight. Only sterile water was added to the 36 wells on the periphery of the 96-well plate without adding cells, and only the 60 wells in the center of the 96-well plate were used for cell assays and controls;
4. Dilution of compounds: the compounds were diluted with a 3-fold dilution to make 10 concentrations in total with an initial concentration of 10 mM;
5. 20 μL of different compounds with different concentrations were added to each well, and 20 μL of complete culture solution was added to the remaining wells. The final concentration of DMSO in each well is 0.25%;
6. After 72 h of incubation, 10 μL CCK-8 reagent was added to each well, and incubated at 37° C. for 1-2 h; and the OD value was read at 450 nm;
7. Cell survival rate (%)=[(As−Ab)/(Ac−Ab)]*100%
As: Assay well (medium containing cell, CCK-8, compound)
Ac: Control well (medium containing cell, CCK-8)
Ab: Blank well (CCK-8, medium without cell and compound)
8. The value was imported into Graphpad Prism5 software for the calculation of IC50s (compound concentration at which 50% maximum survival rate is observed).

Sequence of EGFR kinase (P00533 25-1210): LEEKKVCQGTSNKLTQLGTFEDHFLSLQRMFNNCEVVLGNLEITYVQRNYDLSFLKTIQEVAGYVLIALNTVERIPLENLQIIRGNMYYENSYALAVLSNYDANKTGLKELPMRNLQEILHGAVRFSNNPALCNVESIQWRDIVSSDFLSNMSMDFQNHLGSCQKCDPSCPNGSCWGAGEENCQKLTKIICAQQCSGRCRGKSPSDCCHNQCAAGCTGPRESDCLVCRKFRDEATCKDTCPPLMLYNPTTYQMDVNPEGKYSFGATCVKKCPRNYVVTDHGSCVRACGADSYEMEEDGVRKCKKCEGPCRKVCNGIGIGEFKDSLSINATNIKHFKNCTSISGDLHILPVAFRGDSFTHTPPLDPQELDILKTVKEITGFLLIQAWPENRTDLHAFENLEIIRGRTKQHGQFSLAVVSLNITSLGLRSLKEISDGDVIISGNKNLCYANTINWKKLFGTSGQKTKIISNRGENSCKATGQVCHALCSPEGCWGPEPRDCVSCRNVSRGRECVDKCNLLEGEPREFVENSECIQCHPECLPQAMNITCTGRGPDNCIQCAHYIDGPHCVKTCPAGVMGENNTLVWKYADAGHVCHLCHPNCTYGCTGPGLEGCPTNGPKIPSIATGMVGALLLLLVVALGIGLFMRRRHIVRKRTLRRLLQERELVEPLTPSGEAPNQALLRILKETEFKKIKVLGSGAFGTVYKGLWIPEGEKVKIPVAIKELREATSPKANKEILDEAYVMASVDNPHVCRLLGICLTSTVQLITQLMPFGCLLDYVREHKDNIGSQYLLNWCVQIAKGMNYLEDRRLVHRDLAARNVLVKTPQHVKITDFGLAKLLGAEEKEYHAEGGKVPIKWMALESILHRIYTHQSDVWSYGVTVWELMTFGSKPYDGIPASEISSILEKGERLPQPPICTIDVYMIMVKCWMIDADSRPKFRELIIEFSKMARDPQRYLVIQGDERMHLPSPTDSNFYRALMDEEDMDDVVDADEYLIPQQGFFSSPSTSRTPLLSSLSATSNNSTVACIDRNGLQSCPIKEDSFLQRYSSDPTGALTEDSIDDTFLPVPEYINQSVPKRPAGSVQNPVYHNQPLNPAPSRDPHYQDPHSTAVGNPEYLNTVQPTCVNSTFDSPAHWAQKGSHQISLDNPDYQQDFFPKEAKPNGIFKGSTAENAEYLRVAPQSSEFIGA
Sequence of HER2 kinase (P04626 23-1255): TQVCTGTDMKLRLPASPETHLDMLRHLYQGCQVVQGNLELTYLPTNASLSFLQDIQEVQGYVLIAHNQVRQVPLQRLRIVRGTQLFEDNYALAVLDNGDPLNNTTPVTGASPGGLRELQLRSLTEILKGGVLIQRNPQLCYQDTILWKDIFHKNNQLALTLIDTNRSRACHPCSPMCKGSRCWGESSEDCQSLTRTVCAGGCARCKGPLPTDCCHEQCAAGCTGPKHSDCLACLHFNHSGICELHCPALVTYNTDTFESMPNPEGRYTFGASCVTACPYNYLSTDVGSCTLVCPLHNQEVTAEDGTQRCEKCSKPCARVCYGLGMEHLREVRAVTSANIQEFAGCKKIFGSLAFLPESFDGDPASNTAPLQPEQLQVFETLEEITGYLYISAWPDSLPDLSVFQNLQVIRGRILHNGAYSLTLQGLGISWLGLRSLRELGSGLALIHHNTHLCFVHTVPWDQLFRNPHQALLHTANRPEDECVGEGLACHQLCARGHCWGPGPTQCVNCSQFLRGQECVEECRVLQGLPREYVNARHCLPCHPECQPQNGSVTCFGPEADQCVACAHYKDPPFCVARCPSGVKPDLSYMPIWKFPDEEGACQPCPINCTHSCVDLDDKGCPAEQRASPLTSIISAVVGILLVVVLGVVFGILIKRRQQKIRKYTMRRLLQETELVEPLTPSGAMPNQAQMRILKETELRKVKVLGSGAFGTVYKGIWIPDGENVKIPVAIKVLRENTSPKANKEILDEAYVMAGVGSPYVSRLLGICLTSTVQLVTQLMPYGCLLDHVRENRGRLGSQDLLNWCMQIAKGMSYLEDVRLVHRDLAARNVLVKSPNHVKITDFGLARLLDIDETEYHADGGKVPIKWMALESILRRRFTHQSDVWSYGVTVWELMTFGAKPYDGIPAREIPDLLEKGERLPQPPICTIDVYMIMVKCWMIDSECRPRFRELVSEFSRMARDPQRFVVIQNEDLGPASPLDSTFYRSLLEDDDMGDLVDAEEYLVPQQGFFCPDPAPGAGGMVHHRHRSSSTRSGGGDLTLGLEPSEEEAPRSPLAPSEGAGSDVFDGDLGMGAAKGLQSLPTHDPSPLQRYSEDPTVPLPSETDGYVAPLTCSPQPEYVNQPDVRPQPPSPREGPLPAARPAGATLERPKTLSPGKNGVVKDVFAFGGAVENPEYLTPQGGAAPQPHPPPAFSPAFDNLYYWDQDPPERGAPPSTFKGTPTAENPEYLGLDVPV

| Structure (SMILES) | IC50 [1] [nM] | IC50 [2] [nM] | IC50 [3] [nM] |
| --- | --- | --- | --- |
| C=CC(=O)N1CCOc2c1ccc1ncnc(Nc3ccc(Oc4ccccc4)cc3)c21 [Example 2, 1-(10-((4-phenoxyphenyl)amino)-2,3-dihydro-4H-[1,4]oxazino[2,3-f]quinazolin-4-yl)prop-2-en-1-one] | ≤ 50 | ≤ 50 | – |
| C=CC(=O)N1CCOc2c1ccc1ncnc(Nc3ccc(OCc4cccc(F)c4)c(Cl)c3)c21 [Example 3] | ≤ 50 | ≤ 50 | – |
| C=CC(=O)N1CCOc2c1ccc1ncnc(Nc3ccc(OCc4ccccn4)c(Cl)c3)c21 [Example 4, 1-(10-((3-chloro-4-(pyridin-2-ylmethoxy)phenyl)amino)-2,3-dihydro-4H-[1,4]oxazino[2,3-f]quinazolin-4-yl)prop-2-en-1-one] | ≤ 50 | ≤ 50 | – |
| C=CC(=O)N1CCOc2c1ccc1ncnc(Nc3ccc(Oc4ccccc4)cc3F)c21 [Example 29, 1-(10-((2-fluoro-4-phenoxyphenyl)amino)-2,3-dihydro-4H-[1,4]oxazino[2,3-f]quinazolin-4-yl)prop-2-en-1-one] | ≤ 50 | – | – |
| C=CC(=O)N1CCOc2c1ccc1ncnc(Nc3ccc(Oc4ccccc4OCCN(C)C)cc3)c21 [Example 30, 1-(10-((4-(2-(2-(dimethylamino)ethoxy)phenoxy)phenyl)amino)-2,3-dihydro-4H-[1,4]oxazino[2,3-f]quinazolin-4-yl)prop-2-en-1-one] | ≤ 50 | – | – |
| C=CC(=O)N1CCOc2c1ccc1ncnc(Nc3ccc(Oc4ccccc4OCCCN(C)C)cc3)c21 [Example 31, 1-(10-((4-(2-(3-(dimethylamino)propoxy)phenoxy)phenyl)amino)-2,3-dihydro-4H-[1,4]oxazino[2,3-f]quinazolin-4-yl)prop-2-en-1-one] | 50 to 500 | – | – |
| C=CC(=O)N1CCOc2c1ccc1ncnc(Nc3ccc(Oc4ccccc4OCCOC)cc3)c21 [Example 32, 1-(10-((4-(2-(2-methoxyethoxy)phenoxy)phenyl)amino)-2,3-dihydro-4H-[1,4]oxazino[2,3-f]quinazolin-4-yl)prop-2-en-1-one] | ≤ 50 | – | – |
| C=CC(=O)N1CCOc2c1ccc1ncnc(Oc3ccc(Oc4ccccc4)cc3)c21 [Example 33, 1-(10-(4-phenoxyphenoxy)-2,3-dihydro-4H-[1,4]oxazino[2,3-f]quinazolin-4-yl)prop-2-en-1-one] | ≤ 50 | ≤ 50 | – |
| C=CC(=O)N1CCOc2c1ccc1ncnc(Oc3ccc(OCc4ccccn4)c(Cl)c3)c21 [Example 34, 1-(10-(3-chloro-4-(pyridin-2-ylmethoxy)phenoxy)-2,3-dihydro-4H-[1,4]oxazino[2,3-f]quinazolin-4-yl)prop-2-en-1-one] | ≤ 50 | ≤ 50 | – |
| C=CC(=O)N1CCOc2c1ccc1ncnc(Oc3ccc(Oc4ccc(Cl)cc4)cc3)c21 [Example 36, 1-(10-(4-(4-chlorophenoxy)phenoxy)-2,3-dihydro-4H-[1,4]oxazino[2,3-f]quinazolin-4-yl)prop-2-en-1-one] | ≤ 50 | – | – |
| C=CC(=O)N1CCOc2c1ccc1ncnc(Oc3ccc(Oc4cc(Cl)ccc4Cl)cc3)c21 [Example 38, 1-(10-(4-(2,5-dichlorophenoxy)phenoxy)-2,3-dihydro-4H-[1,4]oxazino[2,3-f]quinazolin-4-yl)prop-2-en-1-one] | ≤ 50 | – | – |
| O=C(/C=C/CN1CCCCC1)N1CCOc2c1ccc1ncnc(Nc3ccc(Oc4ccccc4)cc3F)c21 [Example 97, (E)-1-(10-((2-fluoro-4-phenoxyphenyl)amino)-2,3-dihydro-4H-[1,4]oxazino[2,3-f]quinazolin-4-yl)-4-(piperidin-1-yl)but-2-en-1-one] | ≤ 50 | – | – |
| O=C(/C=C/CN1CCCCC1)N1CCOc2c1ccc1ncnc(Nc3ccc(Oc4ccccc4)c(F)c3)c21 [Example 98, (E)-1-(10-((3-fluoro-4-phenoxyphenyl)amino)-2,3-dihydro-4H-[1,4]oxazino[2,3-f]quinazolin-4-yl)-4-(piperidin-1-yl)but-2-en-1-one] | ≤ 50 | – | – |
| CN1CCC[C@@H]1/C=C/C(=O)N1CCOc2c1ccc1ncnc(Nc3ccc(OCc4ccccn4)c(Cl)c3)c21 [Example 114] | ≤ 50 | – | ≤ 50 |
| O=C(/C=C/CN1CCC(O)CC1)N1CCOc2c1ccc1ncnc(Nc3ccc(OCc4ccccn4)c(Cl)c3)c21 [Example 115, (E)-1-(10-((3-chloro-4-(pyridin-2-ylmethoxy)phenyl)amino)-2,3-dihydro-4H-[1,4]oxazino[2,3-f]quinazolin-4-yl)-4-(4-hydroxypiperidin-1-yl)but-2-en-1-one] | ≤ 50 | – | ≤ 50 |
| O=C(/C=C/CN1CCC(CO)CC1)N1CCOc2c1ccc1ncnc(Nc3ccc(OCc4ccccn4)c(Cl)c3)c21 [Example 117, (E)-1-(10-((3-chloro-4-(pyridin-2-ylmethoxy)phenyl)amino)-2,3-dihydro-4H-[1,4]oxazino[2,3-f]quinazolin-4-yl)-4-(4-(hydroxymethyl)piperidin-1-yl)but-2-en-1-one] | ≤ 50 | – | ≤ 50 |
| O=C(/C=C/CN1CCC(F)CC1)N1CCOc2c1ccc1ncnc(Nc3ccc(OCc4ccccn4)c(Cl)c3)c21 [Example 118, (E)-1-(10-((3-chloro-4-(pyridin-2-ylmethoxy)phenyl)amino)-2,3-dihydro-4H-[1,4]oxazino[2,3-f]quinazolin-4-yl)-4-(4-fluoropiperidin-1-yl)but-2-en-1-one] | ≤ 50 | – | ≤ 50 |
| CN(C/C=C/C(=O)N1CCOc2c1ccc1ncnc(Nc3ccc(OCc4ccccn4)c(Cl)c3)c21)CCCO [Example 120, (E)-1-(10-((3-chloro-4-(pyridin-2-ylmethoxy)phenyl)amino)-2,3-dihydro-4H-[1,4]oxazino[2,3-f]quinazolin-4-yl)-4-((3-hydroxypropyl)(methyl)amino)but-2-en-1-one] | ≤ 50 | – | ≤ 50 |
| C[C@H]1CN(C)CCN1C/C=C/C(=O)N1CCOc2c1ccc1ncnc(Nc3ccc(OCc4ccccn4)c(Cl)c3)c21 [Example 121, (S,E)-1-(10-((3-chloro-4-(pyridin-2-ylmethoxy)phenyl)amino)-2,3-dihydro-4H-[1,4]oxazino[2,3-f]quinazolin-4-yl)-4-(2,4-dimethylpiperazin-1-yl)but-2-en-1-one] | ≤ 50 | – | ≤ 50 |
| CN(C/C=C/C(=O)N1CCOc2c1ccc1ncnc(Nc3ccc(OCc4ccccn4)c(Cl)c3)c21)CCO [Example 122, (E)-1-(10-((3-chloro-4-(pyridin-2-ylmethoxy)phenyl)amino)-2,3-dihydro-4H-[1,4]oxazino[2,3-f]quinazolin-4-yl)-4-((2-hydroxyethyl)(methyl)amino)but-2-en-1-one] | ≤ 50 | – | ≤ 50 |
| C[C@@H]1CN(C)CCN1C/C=C/C(=O)N1CCOc2c1ccc1ncnc(Nc3ccc(OCc4ccccn4)c(Cl)c3)c21 [Example 123, (R,E)-1-(10-((3-chloro-4-(pyridin-2-ylmethoxy)phenyl)amino)-2,3-dihydro-4H-[1,4]oxazino[2,3-f]quinazolin-4-yl)-4-(2,4-dimethylpiperazin-1-yl)but-2-en-1-one] | ≤ 50 | – | ≤ 50 |
